The record followed here is ChEMBL document CHEMBL1201862, “PubChem BioAssay data set” (2004).

Among the test systems are 786-0; A549; COLO 205; HCT-15; HOP-92; HT-29; IGROV-1; MOLT-4; NCI-H23; NCI-H522; OVCAR-4; OVCAR-8; PC-3; SF-539; SN12C; SNB-78; SW-620; T47D; UACC-62; UO-31.
What all share (assay): NCI-60 cell line screen, 48 h

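Five compound concentrations were applied to cells in 96-well plates for 48 hours; endpoints were derived by simple linear interpolation of the resulting dose-response curve. The concentration for 50% growth inhibition is given as GI50.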 The source made the active and inactive calls. Rule as the data show it: active = GI50 up to about 1.1 µM and inactive = higher.

With `Cc1nc2c(C)c3c([nH]c4ccc(Cl)cc43)c(C)c2c(O)c1C`, the GI50 with 786-0 was 3.99 µM (inactive); with A549 it was 2.82 µM (inactive); with COLO 205, 5.53 µM (inactive); in the assay on HCT-15, 3.21 µM; with HOP-92 it was 9.53 µM (inactive); in the assay on HT-29 it was 4.37 µM (inactive). Further, the GI50 in the assay with IGROV-1 was 5.27 µM (inactive); with MOLT-4, 1.63 µM (inactive); with NCI-H23, 4.68 µM (inactive); in the assay on NCI-H522 it was 4.16 µM (inactive); in the assay on OVCAR-4 it was 7.24 µM (inactive); in the assay with OVCAR-8, 4.88 µM (inactive). Moreover, the GI50 in the assay on PC-3 is 5.89 µM (inactive); with SF-539 it was 6.21 µM (inactive); in the assay on SN12C, 5.24 µM (inactive); in the assay with SNB-78, > 100 µM (inactive); in the assay with SW-620 it was 7.52 µM (inactive); with T47D it was 4.66 µM (inactive). Also, the GI50 was 6.44 µM (inactive) in the assay on UACC-62 and 3.66 µM (inactive) in the assay with UO-31.
Take `c1ccc(SCCP(CCP(c2ccccc2)c2ccccc2)c2ccccc2)cc1` (stereo not drawn): the GI50 with 786-0 was 4.57 µM (inactive); in the assay with A549 it was 6.17 µM (inactive); in the assay with COLO 205 it was 8.77 µM (inactive); in the assay on HCT-15, 17.7 µM; with HOP-92 it was 2.29 µM (inactive); in the assay on HT-29 it was 3.47 µM (inactive). Also, the GI50 in the assay on IGROV-1 was 6.34 µM (inactive); in the assay with MOLT-4 it was 11.4 µM (inactive); with NCI-H23, 2.95 µM (inactive); in the assay with OVCAR-4, 6.14 µM (inactive); in the assay with OVCAR-8, 3.06 µM (inactive); in the assay on SF-539, 34.9 µM (inactive). Further, the GI50 was 4.09 µM (inactive) with SN12C; 2.22 µM (inactive) in the assay with SNB-78; 13.3 µM (inactive) in the assay with SW-620; 6.58 µM (inactive) in the assay on T47D; 7.73 µM (inactive) with UO-31.
Consider `COc1ccc2c(c1OC)C(C=C(c1ccccc1)c1ccccc1)CN(C)C2` (stereo not drawn), for which the GI50 is 16.7 µM (inactive) in the assay with 786-0; 30 µM (inactive) in the assay with A549; 14.5 µM (inactive) in the assay on COLO 205; 15 µM with HCT-15; 14.2 µM (inactive) in the assay on HOP-92; 6.82 µM (inactive) in the assay on HT-29. The GI50 in the assay on IGROV-1 was 14.8 µM (inactive); with MOLT-4, 31.6 µM (inactive); in the assay with NCI-H23, 22.4 µM (inactive); with NCI-H522, 17.2 µM (inactive); in the assay with OVCAR-4 it was 41.4 µM (inactive); with OVCAR-8 it was 20.4 µM (inactive). Moreover, the GI50 in the assay with SF-539 was 21.9 µM (inactive); in the assay with SN12C it was 25.5 µM (inactive); with SNB-78, 34.6 µM (inactive); with SW-620, 13.4 µM (inactive); in the assay with UACC-62, 17.3 µM (inactive); in the assay on UO-31 it was 20 µM (inactive).
Consider `CCCCCCCC(=O)O[C@H]1[C@H]2[C@@H](CC1(C)C)C(=O)[C@]13O[C@H]1C(=O)[C@]1(CO1)[C@]23C`, for which the GI50 is 5.07 µM (inactive) in the assay on 786-0; 30.6 µM (inactive) in the assay on A549; 1.23 µM (inactive) in the assay on COLO 205; 2.96 µM with HCT-15; 1.97 µM (inactive) in the assay with HOP-92; 5.19 µM (inactive) with HT-29. Further, the GI50 in the assay on IGROV-1 is 4.4 µM (inactive); in the assay on MOLT-4, 0.251 µM (active); with NCI-H23, 3.46 µM (inactive); in the assay on NCI-H522, 1.3 µM (inactive); in the assay on OVCAR-4, 4.46 µM (inactive); in the assay with OVCAR-8, 2.48 µM (inactive). The GI50 was 17 µM (inactive) in the assay on PC-3; 6.84 µM (inactive) in the assay on SF-539; 4.17 µM (inactive) in the assay on SN12C; 4.94 µM (inactive) with SNB-78; 0.706 µM (active) with SW-620; 1.05 µM (active) with T47D. Besides, the values for the GI50 in the assay with UACC-62 and with UO-31 were 3.55 µM (inactive) and 14.3 µM (inactive), respectively.
For the compound `CN(C)CCC(=O)c1ccccc1`, the GI50 in the assay with 786-0 was 20 µM (inactive); in the assay with A549, > 65.2 µM (inactive); in the assay with COLO 205, 28.9 µM (inactive); in the assay with HCT-15, 24.1 µM; with HOP-92, 24.5 µM (inactive); in the assay on HT-29, > 47.8 µM (inactive). The GI50 in the assay with IGROV-1 is > 58.5 µM (inactive); in the assay on MOLT-4 it was 21.5 µM (inactive); with NCI-H23, > 61.8 µM (inactive); with NCI-H522 it was 0.693 µM (active); in the assay on OVCAR-4 it was 46.7 µM (inactive); in the assay with OVCAR-8, 36.6 µM (inactive). The GI50 in the assay on SF-539 was > 58.1 µM (inactive); in the assay on SN12C, > 58.6 µM (inactive); in the assay with SNB-78, 38.2 µM (inactive); with SW-620, 16.8 µM (inactive); in the assay with UACC-62, > 56.2 µM (inactive); with UO-31, > 56.9 µM (inactive).
As for `COC1OC(CBr)C(OC(=O)c2ccccc2)C(OS(=O)(=O)c2ccc(C)cc2)C1Br` (stereo not drawn), the GI50 in the assay with 786-0 is > 100 µM (inactive); with A549, > 100 µM (inactive); with COLO 205, > 100 µM (inactive); in the assay with HCT-15, more than 100 µM; with HOP-92, 70.1 µM (inactive); in the assay with HT-29, > 100 µM (inactive). For the same compound, the GI50 is > 10 µM (inactive) with IGROV-1; > 100 µM (inactive) in the assay with MOLT-4; > 100 µM (inactive) in the assay on NCI-H23; > 100 µM (inactive) in the assay with NCI-H522; > 100 µM (inactive) in the assay with OVCAR-4; > 100 µM (inactive) in the assay on OVCAR-8. Further, the GI50 is > 100 µM (inactive) with SF-539; > 100 µM (inactive) in the assay with SN12C; > 100 µM (inactive) in the assay on SNB-78; > 100 µM (inactive) in the assay on SW-620; > 10 µM (inactive) in the assay on UACC-62; > 100 µM (inactive) with UO-31.
In the case of `CC(=O)OCC(=O)[C@@]12OC(C)(C)O[C@@H]1C[C@H]1[C@@H]3CC(C=O)=C4C=C(OCCCl)CC[C@]4(C)[C@@]3(F)[C@@H](O)C[C@@]12C` [FORMOCORTAL], the GI50 in the assay on 786-0 was 16.1 µM (inactive); in the assay on A549, 24.5 µM (inactive); in the assay on COLO 205, 18 µM (inactive); in the assay on HCT-15, 11.6 µM; in the assay with HOP-92, 20.9 µM (inactive); with HT-29, 12.5 µM (inactive). In addition, the GI50 in the assay on IGROV-1 is 32.7 µM (inactive); with MOLT-4, 5.87 µM (inactive); with NCI-H23 it was 15.8 µM (inactive); with NCI-H522, 20.3 µM (inactive); in the assay on OVCAR-4 it was 19.9 µM (inactive); with OVCAR-8, 12.9 µM (inactive). The GI50 in the assay on SF-539 was 17.6 µM (inactive); in the assay with SN12C it was 13.3 µM (inactive); in the assay on SNB-78, 15 µM (inactive); in the assay on SW-620, 39 µM (inactive); in the assay with UACC-62 it was > 100 µM (inactive); in the assay on UO-31 it was 32.2 µM (inactive).
Consider `Cc1cc(Br)ccc1/N=N/c1c(C)nn(-c2ccccc2)c1-c1ccccc1`, for which the GI50 with 786-0 was 58.3 µM (inactive); in the assay on A549, 81.8 µM (inactive); with COLO 205, > 100 µM (inactive); in the assay with HCT-15, 9.82 µM; in the assay with HOP-92, 98.6 µM (inactive); in the assay on HT-29 it was 44.5 µM (inactive). For the same compound, the GI50 is 93.5 µM (inactive) with IGROV-1; > 100 µM (inactive) in the assay on MOLT-4; > 100 µM (inactive) in the assay on NCI-H23; 51.6 µM (inactive) in the assay with NCI-H522; > 100 µM (inactive) in the assay on OVCAR-4; > 100 µM (inactive) in the assay with OVCAR-8. Also, the GI50 with SF-539 is 92.3 µM (inactive); in the assay on SN12C, 97.5 µM (inactive); in the assay with SNB-78, > 100 µM (inactive); in the assay with SW-620, 81.5 µM (inactive); with UACC-62 it was 27 µM (inactive); in the assay with UO-31 it was > 100 µM (inactive).
As to `CCCCCCCCCCCCCCCCc1c(O)nc(NN)nc1C(=O)OC`, the GI50 was > 50 µM (inactive) in the assay on 786-0; > 50 µM (inactive) in the assay with A549; > 50 µM (inactive) in the assay on COLO 205; more than 50 µM in the assay on HCT-15; 22.4 µM (inactive) in the assay with HOP-92; > 50 µM (inactive) in the assay on HT-29. Also, the GI50 with IGROV-1, in the assay on MOLT-4, with NCI-H23, in the assay with NCI-H522, in the assay with OVCAR-4 and in the assay with OVCAR-8 was > 50 µM (inactive) in each case. For the same compound, the GI50 with SF-539, in the assay on SN12C, with SNB-78, in the assay on SW-620, in the assay with UACC-62 and in the assay on UO-31 was > 50 µM (inactive) throughout.
Regarding `N/C(=N\O)N/N=C/c1cccc(F)c1`, the GI50 in the assay on 786-0 is 30.4 µM (inactive); in the assay on A549, 31.7 µM (inactive); in the assay on COLO 205, 36.3 µM (inactive); in the assay on HCT-15, 50.9 µM; in the assay on HOP-92 it was 42.9 µM (inactive); in the assay with HT-29, 30.4 µM (inactive). The GI50 is 47.9 µM (inactive) in the assay on IGROV-1; 43.5 µM (inactive) in the assay with MOLT-4; 39 µM (inactive) in the assay on NCI-H23; 29.5 µM (inactive) in the assay on NCI-H522; 85.9 µM (inactive) in the assay with OVCAR-4; 33 µM (inactive) in the assay on OVCAR-8. Further, the GI50 is 28.9 µM (inactive) with SF-539; 44.2 µM (inactive) in the assay with SN12C; > 100 µM (inactive) in the assay with SNB-78; 75.2 µM (inactive) with SW-620; 16.8 µM (inactive) in the assay on UACC-62; 28.3 µM (inactive) in the assay with UO-31.
